Source: patent US20040055025A1, “Immune response replication in cloned animals” (Infigen, Inc., priority 2002, published 2004)
Entries after “also recorded” stand apart in the source; their conditions may differ.

Assays:
estrus synchronized ewes = test: Transfer of NT blastocysts from lovastatin-treated ovine cells into recipient ewes: pregnancy outcome
[1] = test system: ear cells (SA01-FB) used as nuclear donors; test: Nuclear transfer with lovastatin-treated ovine ear cells: in vitro embryo development; format: cell-based, sheep; conditions: NT embryos from SA01-FB ear cells treated with 5 μM lovastatin for 24 hours; per day of NT
Method: Oocytes were aspirated from sheep ovaries obtained from an abattoir and recovered in TL HEPES medium (Biowhittaker 04-616F) containing 10 mg/ml Heparin (Sigma H-3393) and 4 mg/ml BSA (Sigma A-6003). Aspirations were performed using 20 GA needles with the vacuum set at 60 mm Hg.
Two maturation media were used to produce nuclear transfer pregnancies. Maturation Medium 1: TC199 (Gibco 11150-059), 2 mM Glutamine (Sigma G-5763), 10% FBS (Hyclone A-111D), 5 mg/ml ovine FSH (Sigma L-8174), 5 mg/ml ovine LH (Sigma L-5269), 1 mg/ml Estradiol (Sigma E-2257), 0.3 mM Na-pyruvate (Sigma P-4562), and […] (Sigma M-9768). Maturation Medium 3: TC199 (Gibco 11150-059), 10% FBS (Hyclone A-111D), 10 mg/ml ovine FSH (Sigma L-8174), 10 mg/ml ovine LH (Sigma L-5269), 1 mg/ml Estradiol (Sigma E-2257) and […] (Sigma M-9768).
Typically, oocytes were stripped of cumulus cells after 17 hours in maturation medium by vortexing in 0.5 ml of TL-HEPES. The chromatin was stained with Hoechst 33342 (5 mg/ml, Sigma) in TL-HEPES solution for 15 minutes. Oocytes were then enucleated in TL-HEPES with or without calcium.
All nuclear transfers were performed in TL HEPES containing calcium regardless of what enucleation medium was used. […]

recipients = test: Transfer of NT blastocysts from lovastatin-treated bovine cells into recipients: pregnancy outcome; format: in vivo
Method: After blastomere-oocyte fusion, the cybrids from second generation NT were cultured in CR2 media supplemented with BSA (3 mg/ml) under humidified air with 5% CO2 at 39° C. On the third day of culture, developing embryos were evaluated and cultured further until day seven in CR2 media containing 10% FCS. Morphologically good to fair quality embryos were non-surgically transferred into recipient females.
Similar results were obtained using statin-treated bovine cells in nuclear transfer procedures. […] One or two blastocysts were non-surgically transferred into 5 recipients of which two became pregnant (Table 3).

[2] = test system: ear cells derived from a newborn cloned calf (C188/Firstdown-FB000); test: Nuclear transfer with lovastatin-treated bovine ear cells: in vitro embryo development; format: cell-based; conditions: for Emb. Devel. (% Blastocyst): NT embryos from ear cells treated with lovastatin for 24 hours, day 7 of culture
Method: Mycoplasma free totipotent cells used in the NT procedure, were prepared by cutting out a group of cells from the culture dish using a glass needle. The cells were then incubated in a TL HEPES solution containing from 1 to 3 mg/ml pronase E at approximately 32° C. for 15-60 minutes, the amount of time which was needed in this example to disaggregate the cells. Once the cells were in a single cell suspension they were used for NT within a 2-3 hour period.
Oocytes aspirated from ovaries were matured overnight (16 hours) in maturation medium. Medium 199 (Biowhittaker, Cat #12-119F) supplemented with luteinizing hormone 10 IU/ml (LH; Sigma, Cat #L9773), […] (Sigma, Cat #E8875) and 10% FCS or estrus cow serum, was used. Within 16-17 hours of maturation, the cumulus layer expanded and the first polar bodies were extruded.
In the first NT procedure, young oocytes (16-17 hours in maturation medium) were stripped of their cumulus cell layers and nuclear material stained with Hoechst 33342 5 mg/ml (Sigma, Cat #2261) in TL HEPES solution supplemented with cytochalasin B (7 μg/ml, Sigma, Cat #C6762) for 15 min. Oocytes were then enucleated in TL HEPES solution under mineral oil. A single cell of optimal size (12 to 15 μm) was then selected from a cell suspension and injected into the perivitelline space of the enucleated oocyte. The cell and oocyte membranes were then induced to fuse by electrofusion in a 500 μm chamber by application of an electrical pulse of 90V for 15 μs.
Cybrid activation was induced by a 4 min exposure to 5 μM calcium ionophore A23187 (Sigma Cat. #C-7522) or ionomycin Ca-salt in HECM (hamster embryo culture medium) containing 1 mg/ml BSA followed by a 1:1000 dilution in HECM containing 30 mg/ml BSA for 5 min. For HECM medium, See, e.g., Seshagiri & Barister, 1989, “Phosphate is required for inhibition of glucose of development of hamster eight-cell embryos in vitro,” Biol. Reprod. 40: 599-606. […]

For `CC[C@H](C)C(=O)O[C@H]1C[C@@H](C)C=C2C=C[C@H](C)[C@H](CC[C@@H]3C[C@@H](O)CC(=O)O3)[C@H]21` [lovastatin], the “Status (of recipient after embryo transfer)” value (estrus synchronized ewes; NT blastocysts from lovastatin treated SA01-FB cells transferred into ewe, listed as L0) was “open and Lambed”, the Farrowed/Aborted (estrus synchronized ewes; Pregnancy Two, SA01-FB00 lovastatin treated, 4 Day 7 blastocysts transferred, recipient #56) was “farrowed” and the “# of Bl. (blastocysts, day 7)” value [1] was “one and four”. The “Number of recipients that became pregnant” value (recipients; of 5 recipients given one or two blastocysts) was “two”, the Outcome of pregnancies (recipients; two pregnancies from lovastatin treated bovine cells) was “One pregnancy aborted by day 32; also recorded: produced a live calf” and the “Emb. Devel. (% Blastocyst)” value [2] was 19%. For the same compound, the “Emb. Devel. (% Blastocyst)” value ([2]; listed as LOVASTATIN) was 19% and the “Number of blastocysts produced by day 7 of culture” value ([2]; lovastatin treated cells used in NT on two different days) was 6.
